The source of these data is ChEMBL document CHEMBL5331066, “Structure-guided design of novel HEPT analogs with enhanced potency and safety: From Isopropyl-HEPTs to Cyclopropyl-HEPTs” (Eur J Med Chem, 2023).

The EC50 is the concentration giving half of the maximal effect. Usually IC50 stands for the midpoint of a concentration-inhibition curve. Usually CC50 stands for the concentration giving 50% cytotoxicity.

Bounds are passed on as bounds.

The nature of data set [1]: Selectivity index, ratio of CC50 for cytotoxicity against human MT4 cells to EC50 for antiviral activity against wild type HIV1 IIIB infected in human MT4 cells. In kind it is toxicity, cell-based. The conditions noted are these: read-out: Ratio CC50/EC50.
For data set [2], the system named is Human immunodeficiency virus 1. The data set can be described thus: Antiviral activity against HIV1 harboring L100I mutant infected in human MT4 cells assessed as protection against virus-induced cytopathicity. In kind it is functional, organism-based. The note with it: Human immunodeficiency virus 1, MT4.
In data set [3] the test system is Human immunodeficiency virus 1. The data set can be described thus: Antiviral activity against HIV1 harboring E138K mutant infected in human MT4 cells assessed as protection against virus-induced cytopathicity. The conditions noted are these: Human immunodeficiency virus 1, MT4. In kind it is functional, organism-based. (In general: Cytopathic effects are the visible damage that an infection or toxin causes in cultured cells.)

For data set [4], the system named is Human immunodeficiency virus 1. Nature of the data set: Antiviral activity against wild type HIV1 IIIB infected in human MT4 cells assessed as protection against virus-induced cytopathicity. The class given is functional, organism-based. The conditions noted are these: Human immunodeficiency virus 1, IIIB.
Data set [5] has as its system Human immunodeficiency virus 1. Nature of the data set: Antiviral activity against HIV1 harboring Y181C mutant infected in human MT4 cells assessed as protection against virus-induced cytopathicity. The class given is functional, organism-based. The conditions noted are these: Human immunodeficiency virus 1, MT4.
Data set [6] deals with Human immunodeficiency virus 1. Nature of the data set: Antiviral activity against HIV1 harboring K103 N mutant infected in human MT4 cells assessed as protection against virus-induced cytopathicity. The conditions noted are these: Human immunodeficiency virus 1, MT4. The class given is functional, organism-based.
In data set [7] the test system is Human immunodeficiency virus 1. The data set can be described thus: Antiviral activity against HIV1 harboring Y188L mutant infected in human MT4 cells assessed as protection against virus-induced cytopathicity. The note with it: Human immunodeficiency virus 1, MT4. In kind it is functional, organism-based.
The target of data set [8] is Human immunodeficiency virus type 1 reverse transcriptase (Human immunodeficiency virus 1, UniProt Q72547). Nature of the data set: Inhibition of wild type HIV-1 reverse transcriptase assessed as inhibition of biotin deoxyuridine triphosphate incorporation into […].
The nature of data set [9]: Cytotoxicity against human MT4 cells assessed as reduction in cell viability. The class given is toxicity, cell-based.
In data set [10] the target is Cytochrome P450 2D6 (Homo sapiens, UniProt P10635). Nature of the data set: Inhibition of CYP2D6 (unknown origin). The class given is ADME.
Cytochrome P450 2D6, sequence (P10635 whole entry): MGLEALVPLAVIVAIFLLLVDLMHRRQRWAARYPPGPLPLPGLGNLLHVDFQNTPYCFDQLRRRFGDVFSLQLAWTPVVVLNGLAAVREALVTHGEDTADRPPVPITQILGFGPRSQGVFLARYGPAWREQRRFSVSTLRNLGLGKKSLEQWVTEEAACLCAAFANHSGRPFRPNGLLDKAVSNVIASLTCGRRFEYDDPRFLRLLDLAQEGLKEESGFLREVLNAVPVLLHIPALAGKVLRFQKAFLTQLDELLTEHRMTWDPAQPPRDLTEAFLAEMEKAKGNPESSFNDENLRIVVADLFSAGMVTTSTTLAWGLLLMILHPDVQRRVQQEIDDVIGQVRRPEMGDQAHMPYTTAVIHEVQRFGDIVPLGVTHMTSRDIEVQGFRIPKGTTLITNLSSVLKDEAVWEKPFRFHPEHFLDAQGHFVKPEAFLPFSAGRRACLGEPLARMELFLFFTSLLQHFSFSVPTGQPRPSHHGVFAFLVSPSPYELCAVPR

In the case of `Cc1ccc(Sc2c(C3CC3)c(=O)[nH]c(=O)n2COCc2ccccc2)c(C)c1`, in data set [1], the selectivity ratio came out at 7. Moreover, the concentration giving a half-maximal response (EC50) in [2] was 4.75 µM; in data set [3], over 32.2 µM; in [4], 4.75 µM; in data set [5], over 32.2 µM; in [6] it was over 32.2 µM; in data set [7] it was over 32.2 µM. Further, the concentration for half-maximal inhibition (IC50) in [8] is 5.39 µM. In [9], the CC50 is 32.2 µM.

For `Cc1ccc(C)c(Sc2c(C3CC3)c(=O)[nH]c(=O)n2COCc2ccccc2)c1`, the selectivity ratio in [1] was found to be 1050. Moreover, the EC50 in data set [2] worked out at 0.19 µM; in data set [3], 0.23 µM; in data set [4] it was 0.071 µM; in [5], 2.01 µM; in data set [6], 4.16 µM; in data set [7], 19.1 µM. Further, in [8], the concentration for half-maximal inhibition (IC50) came to 0.08 µM. Also, the half-maximal cytotoxic concentration (CC50) in data set [9] amounted to 74.8 µM.

For the compound `O=c1[nH]c(=O)n(COCc2ccccc2)c(Sc2c(F)cccc2F)c1C1CC1`, the selectivity ratio in data set [1] is 89. Further, the EC50 in data set [2] is 2.01 µM; in [3], 1.51 µM; in data set [4], 0.34 µM; in [5] it was over 29 µM; in [6], over 29 µM; in [7], over 29 µM. The IC50 in data set [8] came to 0.72 µM. In addition, the CC50 in data set [9] was 29 µM.

Turning to `O=c1[nH]c(=O)n(COCc2ccccc2)c(Sc2cccc(Br)c2)c1C1CC1`, the selectivity ratio in [1] came out at 239. Moreover, the concentration giving a half-maximal response (EC50) in [2] was 0.37 µM; in [3], 0.24 µM; in data set [4] it was 0.11 µM; in data set [5], 3.09 µM; in data set [6], 3.64 µM; in data set [7] it was over 26.5 µM. Also, the IC50 in data set [8] came to 0.07 µM. Also, the half-maximal cytotoxic concentration (CC50) in [9] worked out at 26.5 µM.

For `O=c1[nH]c(=O)n(COCc2ccccc2)c(Sc2ccccc2Cl)c1C1CC1`, in [1], the selectivity ratio was 515. Moreover, the EC50 is 0.63 µM in data set [2]; 0.43 µM in data set [3]; 0.053 µM in data set [4]; 2.94 µM in [5]; 9.14 µM in data set [6]; over 27.3 µM in data set [7]. In [8], the half-maximal inhibitory concentration (IC50) stood at 0.09 µM. In addition, in data set [9], the half-maximal cytotoxic concentration (CC50) is 27.3 µM.

With `O=c1[nH]c(=O)n(COCc2ccccc2)c(Sc2cccc(F)c2F)c1C1CC1`, the selectivity ratio in data set [1] is 224. Also, the EC50 was 0.5 µM in [2]; 0.5 µM in data set [3]; 0.14 µM in data set [4]; over 31.4 µM in [5]; over 3.84 µM in [6]; over 31.4 µM in [7]. For the same compound, the IC50 in data set [8] is 0.24 µM. For the same compound, the CC50 in [9] was found to be 31.4 µM.

As for `O=c1[nH]c(=O)n(COCc2ccccc2)c(Sc2ccccn2)c1C1CC1`, the selectivity ratio in data set [1] is 1000. Moreover, the concentration giving a half-maximal response (EC50) in data set [2] was 0.39 µM; in data set [3], 0.25 µM; in data set [4], 0.17 µM; in [5] it was 3.99 µM; in [6], 6.12 µM; in data set [7] it was over 49.9 µM. Also, the IC50 in data set [8] came out at 0.11 µM. In data set [9], the half-maximal cytotoxic concentration (CC50) was determined as 167 µM.

As for `COc1ccc2c(c1)[C@]13CCCC[C@@H]1[C@H](C2)N(C)CC3` [DEXTROMETHORPHAN], in data set [10], the half-maximal inhibitory concentration (IC50) came out at 0.052 µM.

Consider `O=c1[nH]c(=O)n(COCc2ccccc2)c(Sc2cccc(Cl)c2)c1C1CC1`, for which, in data set [1], the selectivity ratio was found to be 613. The concentration giving a half-maximal response (EC50) in data set [2] was 0.36 µM; in data set [3] it was 0.19 µM; in data set [4], 0.048 µM; in [5], 3.28 µM; in data set [6], 3.74 µM; in data set [7], over 29.7 µM. The IC50 in data set [8] was 0.06 µM. Moreover, the CC50 in [9] was determined as 29.7 µM.

As for `O=c1[nH]c(=O)n(COCc2ccccc2)c(Sc2ccncc2)c1C1CC1`, in [1], the selectivity ratio was found to be 8. The EC50 was 1.44 µM in [2]; 0.76 µM in data set [3]; 22.2 µM in data set [4]; 17.8 µM in data set [5]; 24 µM in data set [6]; over 167 µM in [7]. In data set [8], the 50% inhibitory concentration (IC50) was found to be 0.63 µM. In [9], the CC50 came to 177 µM.

Take `COc1cccc(Sc2c(C3CC3)c(=O)[nH]c(=O)n2COCc2ccccc2)c1`: the selectivity ratio in data set [1] was 383. In addition, the EC50 in data set [2] was 0.27 µM; in [3] it was 0.49 µM; in [4], 0.085 µM; in data set [5], 5.1 µM; in [6] it was 9.31 µM; in data set [7], over 33.1 µM. Besides, the IC50 in data set [8] was found to be 0.18 µM. The 50% cytotoxic concentration (CC50) in data set [9] worked out at 33.1 µM.

As to `O=c1[nH]c(=O)n(COCc2ccccc2)c(Sc2cc(Cl)ccc2Cl)c1C1CC1`, in data set [1], the selectivity ratio was determined as 1140. The EC50 in data set [2] was 0.12 µM; in [3], 0.07 µM; in data set [4] it was 0.029 µM; in data set [5], 0.51 µM; in data set [6] it was 1.51 µM; in data set [7], 7.92 µM. Also, the IC50 in [8] is 0.03 µM. Besides, the CC50 in [9] stood at 33.9 µM.

With `COc1ccccc1Sc1c(C2CC2)c(=O)[nH]c(=O)n1COCc1ccccc1`, the selectivity ratio in data set [1] is 197. Besides, the EC50 in data set [2] was 0.61 µM; in data set [3], 0.83 µM; in [4], 0.17 µM; in data set [5], 3.82 µM; in data set [6], at least 9.28 µM; in data set [7], over 33.6 µM. Besides, the 50% inhibitory concentration (IC50) in [8] is 0.56 µM. Moreover, the cytotoxic concentration (CC50) in data set [9] was 33.6 µM.

As for `O=c1[nH]c(=O)n(COCc2ccccc2)c(Sc2c(Cl)cccc2Cl)c1C1CC1`, the selectivity ratio in data set [1] stood at 7. Besides, the EC50 in data set [2] is 2.65 µM; in data set [3], 3.07 µM; in data set [4] it was 3.14 µM; in [5], over 22.9 µM; in data set [6], over 22.9 µM; in data set [7], over 22.9 µM. Moreover, the 50% inhibitory concentration (IC50) in data set [8] was found to be 4.23 µM. In [9], the CC50 turned out to be 22.9 µM.

Consider `Cc1ccccc1Sc1c(C2CC2)c(=O)[nH]c(=O)n1COCc1ccccc1`, for which the selectivity ratio in data set [1] worked out at 203. Also, the EC50 in [2] was 1.07 µM; in data set [3] it was 0.89 µM; in [4] it was 0.15 µM; in [5] it was 5.35 µM; in data set [6] it was over 7.96 µM; in data set [7], over 30.1 µM. Also, the 50% inhibitory concentration (IC50) in data set [8] is 0.3 µM. The 50% cytotoxic concentration (CC50) in data set [9] was 30.1 µM.

As for `O=c1[nH]c(=O)n(COCc2ccccc2)c(Sc2cc(F)cc(F)c2)c1C1CC1`, in [1], the selectivity ratio is 842. The EC50 in data set [2] was 0.43 µM; in data set [3], 0.19 µM; in [4], 0.036 µM; in data set [5], 4.27 µM; in data set [6], 3.01 µM; in data set [7], over 30 µM. Further, the half-inhibitory concentration (IC50) in data set [8] came out at 0.1 µM. Further, the half-maximal cytotoxic concentration (CC50) in data set [9] came out at 30 µM.

As to `O=c1[nH]c(=O)n(COCc2ccccc2)c(Sc2ccccc2F)c1C1CC1`, the selectivity ratio in data set [1] worked out at 813. Further, the EC50 was 0.45 µM in data set [2]; 0.35 µM in [3]; 0.043 µM in data set [4]; 4.47 µM in data set [5]; 4.99 µM in data set [6]; over 34.7 µM in [7]. For the same compound, the IC50 in data set [8] is 0.06 µM. In addition, the CC50 in [9] worked out at 34.7 µM.

Consider `O=c1[nH]c(=O)n(COCc2ccccc2)c(Sc2ccc(F)cc2F)c1C1CC1`, for which, in [1], the selectivity ratio was determined as 28. The concentration for a half-maximal effect (EC50) was 3.1 µM in [2]; 8.38 µM in [3]; 1.2 µM in [4]; at least 9.44 µM in [5]; over 33.5 µM in data set [6]; over 33.5 µM in data set [7]. Moreover, in data set [8], the IC50 came out at 1.8 µM. In addition, in [9], the 50% cytotoxic concentration (CC50) worked out at 33.5 µM.

With `O=c1[nH]c(=O)n(COCc2ccccc2)c(Sc2ccc(Cl)cc2Cl)c1C1CC1`, the selectivity ratio in [1] came out at 6. The EC50 in data set [2] was 4.43 µM; in data set [3], over 30 µM; in data set [4] it was 5.3 µM; in [5], at least 11.1 µM; in [6], over 30 µM; in [7], over 30 µM. Besides, in data set [8], the IC50 is 5.56 µM. Further, the half-maximal cytotoxic concentration (CC50) in [9] was 34 µM.

`O=c1[nH]c(=O)n(COCc2ccccc2)c(Sc2cccc(F)c2)c1C1CC1`: in [1], the selectivity ratio is 1520. In addition, the EC50 in data set [2] is 0.25 µM; in data set [3], 0.13 µM; in [4] it was 0.025 µM; in data set [5], 3.36 µM; in data set [6] it was 2.99 µM; in data set [7], over 38.8 µM. The 50% inhibitory concentration (IC50) in data set [8] came out at 0.04 µM. Moreover, the CC50 in data set [9] stood at 38.8 µM.

For the compound `Cc1cccc(C)c1Sc1c(C2CC2)c(=O)[nH]c(=O)n1COCc1ccccc1`, the selectivity ratio in [1] was determined as 7. In addition, the half-maximal effective concentration (EC50) is over 7.42 µM in data set [2]; over 30.3 µM in data set [3]; 4.36 µM in data set [4]; over 30.3 µM in data set [5]; over 30.3 µM in [6]; over 30.3 µM in data set [7]. Also, the 50% inhibitory concentration (IC50) in data set [8] stood at 6.12 µM. For the same compound, in data set [9], the CC50 is 30.3 µM.
